Measurements reported in patent US20250325467A1, “COMPOSITIONS FOR PREVENTING OR TREATING SKIN AGING” (ESTETRA SRL, priority 2021, published 2025).
Entries after “also recorded” stand apart in the source; their conditions may differ.

Tests used:
[1] = test system: mouse lymphoma cell line L5178Y TK^+/−; assay: Generation of reactive oxygen species (ROS) in mouse lymphoma cells; assay type: cell-based; conditions: up to 100 μM; 3 h exposure; vs vehicle control
Description: The objective of the study was to investigate the generation of reactive oxygen species (ROS) induced by the test item, estetrol (E4), in a mouse lymphoma cell line L5178Y TK^+/−.
L5178Y TK^+/− cells in logarithmic phase of growth were plated in black 96 well cell culture plates at 1×10^4 cells in 90 μL of cell culture media. Controls and test item in triplicate were applied to the cells as a 10× concentrate in 10 μL of a 10% ethanol solution in PBS (final concentration of ethanol on plate was 1%). Cells were incubated for 3 hours at 37° C., 5% CO2, and the generation of ROS was evaluated by fluorescence with a ROS reagent: the ROS reagent was freshly prepared by dissolving one ampoule of reagent (50 μg) in 70 μL DMSO and further diluting this with 2.1 mL of pre-warmed PBS. 10 μL of ROS reagent was added to each well and the plate were shaken for 30 seconds in the dark. The plates were incubated approximately at 37° C., 5% CO2 for 1 h 30 min and fluorescence was read on a plate scanner with excitation at 492 nm and emission at 520 nm.

[2] = test system: Normal Human Epidermal Keratinocytes (NHEKs); assay: Colonization of a standard acellular area (IBIDI chamber gap closure) by keratinocytes; assay type: cell-based; conditions: for colonization of the cell-free area by NHEK, overall: all four concentrations (10^−7M to 10^−10M), vs ethanol control
Description: (§1) The study consists in an in vitro assay aiming to evaluate the properties of E4 and E2 at 4 concentrations each on keratinocytes and fibroblasts. In this assay, the measurement of the colonization of a standard acellular surface generated from a confluent monolayer of cells using a dedicated culture device (IBIDI chamber) is performed. The assay is performed in absence and in presence of a proliferation inhibitor to focus on cell proliferation and migration or on migration only, respectively.
The study was performed using cultures of Normal Human foreskin-derived Epidermal Keratinocytes (NHEKs, Lonza). The cells were grown in serum free Epilife medium (ThermoFisher Scientific) supplemented with Human Keratinocyte Growth Supplement (HKGS, ThermoFisher Scientific) and antibiotics. The cells were maintained in a humidified incubator at 37° C. with a 5% CO2 atmosphere.
(§2) Cells were plated in 2-well silicone inserts with a defined cell free gap (IBIDI chambers; IBIDI GmbH, 80209) that was previously inserted on 12-well culture plates. This culture device allows to create a standardized 500 μm±100 μm cell free gap for monitoring cell colonization. 24 h after seeding, when the culture reached high confluency, cells in the insert were treated, or not, with mitomycin C (MMC) at 10 μg/ml during 2 h. After these 2 hours, the insert was removed, and cells were treated with E2 or E4 in presence or not of MMC for additional 2 h. Then, if appropriate, the culture medium was removed and cells were treated with E2 or E4 for 22 h, in absence of MMC.
(§3) For the assay, keratinocytes were plated in Epilife medium without HKGS and all the treatments were performed in this medium. Fibroblasts were plated in DMEM medium containing only 2,5% of FBS and the treatments were performed in absence of FBS.
(§4) E2 and E4 were applied at 4 concentrations each (10^−7M, 10^−8M, 10^−9M, 10^−10M). In parallel, cells were treated with a positive control (HKGS 1% for human keratinocytes and PDGF-BB at 10 ng/ml for human fibroblasts).
(§5) To monitor cell colonization and to evaluate the gap closure rate, pictures of the gap were taken after different times: at time 0 h, corresponding to the beginning of the treatment with E2 or E4 and to the removal of the culture insert, at time 6 h and at time 24 h (corresponding to the end of the treatments with E2 or E4). Pictures were taken with a microscope Zeiss (Axiover 25-10× objective) and with a camera Invenio2EIII (DeltaPix—Lux-Optic). The colonized areas were quantified from the pictures by the use of the WimAsis platform—WimScratch software. For each insert, 3 pictures were taken at each time. As each condition was performed in triplicates, it means a total of 9 pictures per condition and per time point of acquisition

[3] = test system: Normal Human Dermal Fibroblasts (NHDFs); assay: Colonization of a standard acellular area (IBIDI chamber gap closure) by fibroblasts; assay type: cell-based; conditions: for NHDF Proliferation & Migration (colonization of the acellular area): absence of MMC, 6 h and 24 h; for colonized area, NHDF, positive reference: 10 ng/ml
Description: as §1
Normal Human forskin-derived Dermal Fibroblats (NHDFs, ATCC) cells were grown in phenol-free Dulbecco's Modified Eagle Medium (DMEM, ThermoFisher Scientific) supplemented with 10% of Foetal Bovine Serum (FBS, ThermoFisher Scientific), L-glutamine and antibiotics. The cells were maintained in a humidified incubator at 37° C. with a 5% CO2 atmosphere.
as §2, §3, §4, §5

IL-6 release from NHEKs = assay: PMA/A23187-induced IL-6 release from NHEKs (ELISA, normalized to viability); assay type: cell-based, human; conditions: E2, 3 concentrations assessed (not specified); 24 h
Description: The Normal Human foreskin-derived Epidermal Keratinocytes (NHEKs, Lonza, 00192906), isolated from foreskin of 3 Caucasian donors, were grown in Epilife medium (Fisher Scientific, M-EPI-500-A) supplemented with Human Keratinocyte Growth Supplement (HKGS, Fisher Scientific, S-001-5) and antibiotics (Gentamycin, Fisher Scientific, 15710-049). The cells were maintained in a humidified incubator at 37° C. with a 5% CO2 atmosphere.
E4 and E2, provided as powder, were dissolved in 100% ethanol at 0.1M. They were then further diluted in ethanol and in culture medium to reach the appropriate concentrations. […] Practically, stock solutions 1000-fold concentrated were prepared in 100% ethanol, aliquoted and stored at −20° C. until cell application.
In order to induce the release of IL-6, NHEKs were exposed for 24 h with phorbol myristate acetate (PMA) at 10 ng/mL, in combination with calcium ionophore A23187 (Sigma Aldrich, C5722) at 2 μM. The treatments with the test or reference items were performed simultaneously with the inflammatory challenge. […] E4 was applied at 10^−4, 10^−5, 10^−6, 10^−7 and 10^−8 M and E2 at 10^−5, 10^−6, 10^−7, 10^−8 and 10^−9 M EtOH at 0.1% was tested as solvent control. Dexamethasone at 10 μM was used as anti-inflammatory reference. At the end of 24 h treatment, supernatants were harvested and stored at −20° C., and cell viability assay was assessed by MTS (see section 5). The kinetics of the treatments is outlined in FIG. 12. All the treatments were performed in triplicates (n=3).
The quantification of the release of inflammatory markers was performed using specific ELISA kits, based on standard curves, according to supplier's specifications. The results were then normalized to the corresponding cell viability (obtained by MTS assay).
The supplier's reference of the kits used for IL-6 quantification is as follows: IL-6, BioTechne, D6050.
At the end of the treatments and culture media collection, the viability of the cells was evaluated using the MTS (3-(4,5-dimethythiazol-2-yl)-5-(3-carboxy-methoxyphenyl)-2-(4-sulfophenyl)-2H-tetrazolium) assay. The effects of the treatments were compared to the untreated control condition and to the solvent control (EtOH 0.1%). The viability data were used in order to normalize the quantities of released inflammatory mediators.
NHEKs were treated as described in the methodology section. The quantification of IL-6 by ELISA was performed from the collected supernatants, following the instructions of the kit provider. Only 3 concentrations of the test items (chosen in accordance with the Sponsor following the results of the viability assay) were assessed in the ELISA.

## OO [hydrogen peroxide, reference compound]
[1]
  levels of ROS (controls): tendency to increase the levels of ROS

## C[C@]12CC[C@@H]3c4ccc(O)cc4CC[C@H]3[C@@H]1CC[C@@H]2O [E2, 17β-estradiol, reference compound]
[2]; 10^−7M to 10^−9 M, after 24 h of treatment, significant only for 10^−8M
  effect on the gap closure by NHEK: inhibitor effect on the gap closure
[2]; absence of MMC
  colonization of the cell-free area by NHEK, overall: not able to significantly increase the colonization of the cell-free area; also recorded: no significant effect on keratinocyte proliferation or migration
[2]; presence of MMC
  colonization of the cell-free area by NHEK, overall: not able to significantly increase the colonization of the cell-free area; also recorded: no significant effect on keratinocyte proliferation or migration
[3]; 10^−7M, vs ethanol control
  NHDF Proliferation & Migration (colonization of the acellular area): increased the colonization of the acellular area; also recorded: significant activity
[3]; 10^−8M, vs ethanol control
  NHDF Proliferation & Migration (colonization of the acellular area): increased the colonization of the acellular area; also recorded: significant activity
[3]; 10^−10M, vs ethanol control
  NHDF Proliferation & Migration (colonization of the acellular area): increased the colonization of the acellular area; also recorded: significant activity
[3]; presence of MMC, all four concentrations (10^−7M to 10^−10M), vs ethanol control
  colonization of the cell-free gap by NHDF, overall: not able to significantly increase the colonization of the cell-free gap
IL-6 release from NHEKs
  PMA/A23187-induced IL-6 release: unaffected; also recorded: not observed

B1: PDGF-BB: positive control at 10 ng/ml for human fibroblasts (protein, UniProt P01127 82-190, looked up)
Platelet-derived growth …: SLGSLTIAEPAMIAECKTRTEVFEISRRLIDRTNANFLVWPPCVEVQRCSGCCNNRNVQCRPTQVQLRPVQVRKIEIVRKKPIFKKATVTLEDHLACKCETVAAARPVT
[3]; in absence of MMC
  colonized area, NHDF, positive reference: significantly increases the colonized area
[3]; in presence of MMC
  colonized area, NHDF, positive reference: significantly increases the colonized area
